The subject of series [1] is Mus musculus. The series is described as follows: Antiinflammatory activity in mouse assessed as inhibition of LPS-induced TNFalpha production at 3 mg/kg, po. Format: functional.
For series [2], the system named is Mus musculus. As to the kind of experiment: Toxicity in B10.RIII mouse assessed as insulin level in serum at 3 mg/kg, po qd for 5 weeks relative to control. Particulars: in vivo, 840 h. Also noted: dose 3 mg/kg, route oral. The class given is organism-based.
In series [3] the test system is Mus musculus. As to the kind of experiment: Toxicity in B10.RIII mouse assessed as triglyceride level in serum at 3 mg/kg, po qd for 5 weeks relative to control. Format: organism-based. Also noted: dose 3 mg/kg, route oral. Conditions: in vivo, 840 h.
Series [4] relates to Mus musculus. The series is described as follows: Antiarthritic activity in B10.RIII mouse collagen/complete Freund's adjuvant-induced arthritis model assessed as reduction of disease score at 30 mg/kg, po qd for 5 weeks relative to control. Format: functional. Set-up: scale not given: the % may be the effect or the level left.
The test system of series [5] is Mus musculus. The series is described as follows: Toxicity in B10.RIII mouse assessed as free fatty acid level in serum at 30 mg/kg, po qd for 5 weeks relative to control. Format: organism-based. Also noted: dose 30 mg/kg, route oral. Conditions: in vivo, 840 h.
The subject of series [6] is Mus musculus. The series is described as follows: Toxicity in B10.RIII mouse assessed as insulin level in serum at 30 mg/kg, po qd for 5 weeks relative to control. Conditions: in vivo, 840 h. Format: organism-based. Set-up: dose 30 mg/kg, route oral.
Series [7] has as its system Mus musculus. The series is described as follows: Toxicity in B10.RIII mouse assessed as body fate level in serum at 3 mg/kg, po qd for 5 weeks relative to control. The class given is organism-based. Set-up: dose 3 mg/kg, route oral. Particulars: in vivo, 840 h.
The test system of series [8] is Mus musculus. The series is described as follows: Toxicity in B10.RIII mouse assessed as free fatty acid level in serum at 3 mg/kg, po qd for 5 weeks relative to control. The class given is organism-based. Set-up: dose 3 mg/kg, route oral. Conditions: in vivo, 840 h.
The subject of series [9] is Mus musculus. The series is described as follows: Toxicity in B10.RIII mouse assessed as triglyceride level in serum at 30 mg/kg, po qd for 5 weeks relative to control. Format: organism-based. Conditions: in vivo, 840 h. Also noted: dose 30 mg/kg, route oral.
Series [10] concerns Mus musculus. As to the kind of experiment: Antiarthritic activity in B10.RIII mouse collagen/complete Freund's adjuvant-induced arthritis model assessed as reduction of disease score at 3 mg/kg, po qd for 5 weeks relative to control. The class given is functional. Also noted: scale not given: the % may be the effect or the level left.
The subject of series [11] is Mus musculus. The series is described as follows: Toxicity in B10.RIII mouse assessed as body fate level in serum at 30 mg/kg, po qd for 5 weeks relative to control. Format: organism-based. Also noted: dose 30 mg/kg, route oral. Conditions: in vivo, 840 h.

A word on the inhibition in vivo: it is the change of the read-out against control, counted positive when it falls. With `C[C@]12C=CC(=O)C=C1CC[C@@H]1[C@@H]2[C@@H](O)C[C@@]2(C)[C@H]1CC[C@]2(O)C(=O)CO` [PREDNISOLONE], in the series with Mus musculus [1], the inhibition in vivo at 3 mg/kg was 87%. Moreover, the Activity is on record as 37% in the series with Mus musculus [2]; -11% in the series with Mus musculus [3]; -80% with Mus musculus [4]; 27% in the series on Mus musculus [5]; 187% in the series on Mus musculus [6]; 13% in the series with Mus musculus [7]. Besides, the Activity in the series on Mus musculus [8] is 16%; in the series on Mus musculus [9] it was 55%; in the series on Mus musculus [10], -42%; in the series with Mus musculus [11] it was 53%.

The record behind these values is ChEMBL document CHEMBL3232739, “Discovery of a potent and dissociated non-steroidal glucocorticoid receptor agonist containing an alkyl carbinol pharmacophore” (Bioorg Med Chem Lett, 2014).
